Entries after “also recorded” stand apart in the source; their conditions may differ.

Series [1] deals with irradiated mouse bladder detrusor. The series is described as follows: Length-tension profiles and contractile responses of irradiated mouse bladders after relaxin treatment. In kind it is in vivo. As to conditions: relaxin treated. The text has this: (§1) FIG. 5A-5D. Relaxin treatment improves detrusor contractility and reduces bladder fibrosis in mouse bladders with chronic stage radiation cystitis. FIG. 5A. Length-tension profiles from irradiated (9-weeks post exposure) mouse bladders with and without relaxin treatment. […] FIG. 5B. […] FIG. 5C. […] Expression of the L-type Ca^2+ channel subunit, CaV1.2, was examined by immunohistochemistry. […] FIG. 5D.
(§2) A mouse model was developed to mimic chronic radiation cystitis. As a surrogate to chronic radiation cystitis in the mouse, a laparotomy was performed where the bladder was briefly withdrawn for selective high dose (10 Gy) irradiation (FIG. 4(A)). Delivered to the pelvic region such a dose could be lethal (LD50≅8 Gy). […] Moreover, following spinal cord injury, rodents can develop detrusor-sphincter-dyssynergia (DSD) which also occurs in humans. […] This is the first application of relaxin to treat bladder dysfunction due to irradiation damage or any urinary tract disease. The data also are by far the most impressive reversal/treatment for radiation cystitis.

The conditions of series [2]: clinical trials in acute heart failure and scleroderma; as high as 250 μg/kg/day; cited from earlier work.
Series [3] deals with C57Bl/6 mice with chronic radiation cystitis. The series is described as follows: Urine spot analysis of irradiated mice. In kind it is in vivo, mouse. The protocol:
FIG. 16. Urine spot analysis from irradiated mice with and without hRLX2 therapy. Mice were placed in metabolic cages with Whatman paper on the floor for 2 hours between 11 AM and 2 PM without access to food and water. Upon completion, filter papers were collected and photographed under UV light.
Thus, our assessment is that the therapeutic dose of hRLX2 is likely between 80 and 400 μg/kg/day.

The subject of another series is RXFP1 and RXFP2 receptor. As to conditions: Bathgate et al. 2013; cited from earlier work.
The test system of series [4] is aged rat bladder. Description: Collagen staining and collagen:tissue ratio in aged and adult rat bladder sections. As to conditions: for collagen:tissue ratio / bladder collagen content / deposition: 400 μg/kg/day for 14 days; for bladder collagen content / deposition: aged rats (male where stated). In kind it is in vivo. The protocol:
The other bladder strip was fixed in 10% PFA, embedded in paraffin, cut 5 μm thick, stained for collagen (Sigma HT251) and examined using bright field microscopy (total mag., 400×). The images were obtained at identical conditions and color analysis was performed using the ImageJ software threshold function to discriminate collagen and smooth muscle content.
(§3) Aged (24 month) and adult (9 month) male and female F344 rats were administered recombinant human relaxin-2 (400 μg/kg/day) or saline for 14-days via subcutaneous osmotic pumps. At the end of the treatment period, bladders were isolated. Contractile function was assessed in bladder muscle strips using length-tension relationship and responses to agonists and electrical field stimulation. Bladder wall morphology was examined in histological sections stained for collagen and elastin.
(§4) Aged (24 month) and adult (9 month) male and female F344 rats (obtained through the aged rodent colony of the National Institute on Aging) were administered recombinant hRLX2 (400 μg/kg/day) or saline for 14-days via subcutaneous osmotic pumps. At the end of the treatment period, bladders were isolated and contractile function assessed in organ bath experiments using muscle strips to measure length-tension relationships and responses to agonists and electrical field stimulation. Bladder wall morphology was examined in 3 μm-thick histological sections stained for collagen and elastin. The expression of the L-type Ca^2+ channel α-subunit, Cav1.2, and relaxin receptor subtypes, RXFP1 and RXFP2, were determined by immunohistochemistry.

Another series concerns irradiated mouse bladder. Description: Histology and collagen quantification of irradiated mouse bladders. In kind it is in vivo.
From the text: as §1, §2

The test system of series [5] is CaV1.2. Description: Immunohistochemistry of L-type Ca2+ channel subunit in irradiated mouse bladders. In kind it is in vivo. As to conditions: relaxin treated, listed as relaxin.
From the text: as §1, §2

In series [6] the test system is irradiated mouse bladder (chronic radiation cystitis). The series is described as follows: Decerebrated cystometry with simultaneous EUS electromyography in the selective bladder irradiation (chronic radiation cystitis) mouse model. In kind it is in vivo. As to conditions: mice 9 weeks after 10 Gy selective bladder irradiation. As to the method: FIG. 4. Cystometric and EUS electromyographic assessment of irradiated mice with and without relaxin treatment. A. Selective bladder irradiation model. B-D. Bladder and sphincter functions were assessed using decerebrated cystometry with simultaneous electromyography (EMG; green traces) at 9 weeks following bladder irradiation.
as §2

Series [7] relates to Cav1.2. The series is described as follows: Immunohistochemistry of Cav1.2 in aged rat bladders. In kind it is in vivo. The note with it: aged (24 month) rat bladders, 400 μg/kg/day for 14 days.
From the text: FIG. 7. Expression of L-type Ca^2+ channels is increased in aged rat bladders following relaxin treatment. Immunohistological staining of aged (>24 month old) rat bladder sections for the L-type Ca^2+ channel al C subunit, Cav1.2α. Expression of Cav1.2α was increased in relaxin-treated rat bladders compared to sham controls, similar to that observed in irradiated mouse bladders (FIG. 5C). […] This emphasizes the heterogeneity of aging related bladder changes.
as §4

The subject of series [8] is aged rat bladder. Description: Length-tension studies and agonist/EFS responses of bladder strips from aged and adult rats. In kind it is in vivo. The protocol: Adult (9 months old) and aged (24 months old) Fisher 344/Brown Norway F1 (F-344) male rats were used in this study. Six out of twelve rats in each age group were treated with relaxin (400 μg/kg/day) or vehicle which were infused by osmotic mini-pumps (ALZET) for 14 days, after which bladders were excised and cut from outlet to dome along the midline ventral and dorsal aspects to form two strips.
One strip was placed in a recording chamber with oxygenated Krebs solution. The base was pinned to a fixed platform and the dome connected to a tension transducer mounted on a programmable stepper motor. Bladder strips were stretched longitudinally in 500 μm increments and baseline tension allowed to stabilize (passive tension). Three field stimulation (20 Hz, 3 sec train, 0.5 ms pulse width, 15V output) contractions were performed at each stretch to determine active force generation.
as §3, §4

Series [9] has as its system aged rat prostate / urethra. The series is described as follows: Histological sections of male rat urethras at the level of the prostate (aged rats, BPH). In kind it is in vivo. The note with it: hRLX2 treated vs control, preliminary studies. The text has this:
FIG. 21. Histological sections of male rat urethras—at the level of the prostate—from control and hRLX2 treated aged rats.
Benign Prostatic Hyperplasia is a non-malignant enlargement of the prostate and is a condition that frequently affects the elderly male population. BPH in humans can cause constriction of the urethra, outlet obstruction, inflammation, fibrosis and the development of LUTD (Bushman, W. A., et al.: The role of prostate inflammation and fibrosis in lower urinary tract symptoms. Am J Physiol Renal Physiol, 311: F817, 2016). […] However, the therapeutic effects of hRLX2 on BPH itself can still be evaluated in aged animal models. We propose that selective injection of hRLX2 (FIG. 20) to the lateral and ventral lobes (corresponding to the transitional zone of the human prostate) or systemic administration could be performed in aged rats or mice. Following treatment, the prostates could be evaluated histologically for morphological changes such as smooth muscle or extracellular matrix content, signs of inflammation (e.g., mast cell infiltration, edema) or epithelial damage, as that observed in preliminary studies (FIG. 21).

Series [10] is described as follows: Plasma hRLX2 level in rats. In kind it is in vivo. As to conditions: rat, male; SC pump 77 μg/kg/d/14 days.
A further series has as its target RXFP2 (Homo sapiens, UniProt Q8WXD0). The note with it: cited from earlier work.
The mark [11] stands for this setting: adult (9 month) male rats, relaxin vs vehicle, 400 μg/kg/day for 14 days.

Chain of RXFP2 (Q8WXD0 whole entry, species assumed): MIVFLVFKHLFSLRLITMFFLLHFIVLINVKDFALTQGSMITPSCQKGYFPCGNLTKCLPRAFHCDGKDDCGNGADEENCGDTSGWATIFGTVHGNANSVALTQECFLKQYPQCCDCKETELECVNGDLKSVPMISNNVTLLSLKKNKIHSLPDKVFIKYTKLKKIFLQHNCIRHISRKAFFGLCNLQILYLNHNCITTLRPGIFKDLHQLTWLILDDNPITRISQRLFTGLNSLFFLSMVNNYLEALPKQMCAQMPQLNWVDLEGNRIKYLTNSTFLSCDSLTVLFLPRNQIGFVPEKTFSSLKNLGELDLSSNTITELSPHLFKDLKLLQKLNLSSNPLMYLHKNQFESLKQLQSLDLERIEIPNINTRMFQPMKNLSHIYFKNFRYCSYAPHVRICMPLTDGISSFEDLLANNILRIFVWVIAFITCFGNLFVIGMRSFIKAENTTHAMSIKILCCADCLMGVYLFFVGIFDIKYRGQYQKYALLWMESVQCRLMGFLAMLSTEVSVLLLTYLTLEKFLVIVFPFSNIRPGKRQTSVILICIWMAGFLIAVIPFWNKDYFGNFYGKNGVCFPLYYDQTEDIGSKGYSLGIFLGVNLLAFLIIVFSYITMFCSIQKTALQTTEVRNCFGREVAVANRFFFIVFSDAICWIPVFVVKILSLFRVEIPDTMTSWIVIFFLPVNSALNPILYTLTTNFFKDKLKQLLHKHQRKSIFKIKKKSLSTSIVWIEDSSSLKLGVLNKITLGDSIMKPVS

For human relaxin-2 [hRLX2], the “active tension / active force generation (length-tension profile)” value in [1] (9 weeks post exposure) is recorded as “reversed by relaxin treatment to a profile similar to non-irradiated control mouse bladders; also recorded: increased active force generation”. Besides, in series [1] (9 weeks post exposure), the “passive tension (length-tension profile)” value is given as “reversed by relaxin treatment to a profile similar to non-irradiated control mouse bladders; also recorded: reversed by relaxin”. The “responses to purinergic agonist (ABMA), depolarization (KCl) or electrical field stimulation (EFS)” value in series [1] is reported as “no significant change”. Further, the “contractile response of the detrusor to oxotremorine-M (cholinergic response)” value in [1] (listed as Relaxin) is “increased the contractile response of the detrusor to muscarinic receptor agonist, oxotremorine-M”; in series [1] (listed as relaxin), “an increase in the cholinergic response”. In addition, in [2], the “safety for use in humans” value is “validated its safety for use in humans”. The “urine spot analysis: number of spots and voided volumes” value in series [3] (irradiated mice (10 Gy), 50 μg/kg/day sc osmotic pump, two weeks) is “small decrease in the number of spots and increase of voided volumes”. In addition, the “urine spot analysis: voiding pattern” value in [3] (irradiated mice (10 Gy), 400 μg/kg/day) is on record as “voiding pattern identical to those of non-irradiated controls”. Further, the “urine spot analysis: voided volumes and number of spots” value in series [3] (irradiated mice, dose not given) was “increased voided volumes and decreased the number of spots, restoring normal bladder function”. Moreover, in the series on RXFP1 and RXFP2 receptor, the “affinity, RXFP1 versus RXFP2” value is recorded as “greater for the RXFP1 than the RXFP2 receptor”. For the same molecule, the “collagen:tissue ratio” value in the series with aged rat bladder [4] (9 month adult male rats, no significant difference to vehicle) worked out at 0.33±0.09; with aged rat bladder [4] (24 month aged male rats, p<0.05), 0.36±0.08. Further, the “size of each bladder layer and collagen distribution” value with aged rat bladder [4] (9 month old rats, sham vs relaxin treated) is reported as “not significantly different”. Moreover, the results for the “bladder collagen content / deposition” value with aged rat bladder [4] and with aged rat bladder [4] (listed as relaxin) were “decreased by hRLX2 treatment” and “decreased following relaxin treatment; also recorded: significant decrease in collagen content; also recorded: decreases in collagen content”, respectively. In addition, the “detrusor layer thickness and collagen infiltration” value with aged rat bladder [4] (aged rats, relaxin treated vs shams) is “increased detrusor layer thickness and less collagen infiltration compared to shams”. Moreover, the “bladder wall histology (urothelium, lamina propria, detrusor layer)” value in the series on irradiated mouse bladder (relaxin treated) is “intact urothelium, normal lamina propria and increased thickness of the detrusor layer”. The collagen content result with irradiated mouse bladder (relaxin vs sham treated) is recorded as “significant decrease in collagen content; also recorded: decreased collagen content”. Also, the “CaV1.2 expression in the detrusor” value with CaV1.2 [5] is recorded as “returned by relaxin treatment; also recorded: an increase in the expression of Cav1.2α”. The “EUS electromyogram: guarding reflex and bursting” value in series [6] (relaxin 400 μg/kg/day sc for 2 weeks from week 7) was “recovered with relaxin treatment; also recorded: return of a normal guarding reflex and bursting”. The “cystometry: voiding function and bladder compliance” value in series [6] (relaxin 400 μg/kg/day sc mini-pump for 2 weeks from week 7) was “abolished overflow incontinence with a return of voiding function and improved bladder compliance”. Moreover, the “Cav1.2 expression in the detrusor layer” value in the series with Cav1.2 [7] is recorded as “increased in aged rat bladders following hRLX2 treatment”; in the series on Cav1.2 [7] (listed as Relaxin), “increased expression of L-type Ca^2+ channels”; in the series on Cav1.2 [7] (listed as relaxin) it was “increased; also recorded: increases in smooth muscle expression of Cav1.2α”. Moreover, the “compliance and force generation” value in the series on aged rat bladder [8] (24 month-old Fischer F-344 rats, 400 μg/kg/day sc ALZET pumps, 2 weeks (Example 2)) was “substantial increases in both compliance and force generation”. Besides, the active tension generation result in the series on aged rat bladder [8] (setting [11]) was “increased active tension generation compared to controls”; in the series on aged rat bladder [8] (aged rats, relaxin vs vehicle/sham, 400 μg/kg/day for 14 days) it was “equivocal; also recorded: no significant changes”. Moreover, the passive tension profile entry with aged rat bladder [8] (setting [11]) is listed as “no significant difference”; with aged rat bladder [8] (aged (24 month) rats, male where stated, 400 μg/kg/day sc for 14 days), “return of passive tension profiles comparable to adults”; with aged rat bladder [8] (aged (24 month) rats, male where stated, 400 μg/kg/day sc for 14 days, listed as Relaxin) it was “return of passive tension profiles comparable to adults”; in the series on aged rat bladder [8] (aged (24 month) rats, male where stated, 400 μg/kg/day sc for 14 days, listed as relaxin), “passive tension began increasing at a smaller degree of stretch compared to relaxin treated animals; also recorded: decreased the passive tension profile to that of adult animals”. For the same molecule, the “responses to contractile agonists (ABMA and oxotremorine-M) or depolarization (KCl and EFS)” value in the series on aged rat bladder [8] (aged and adult rat bladders, relaxin vs sham) was “no significant change”. In the series with aged rat bladder [8] (aged female rats, 400 μg/kg/day for 14 days), the tissue compliance entry was “nor was it significantly altered”. In addition, the “prostatic urethra histology (inflammation, columnar epithelium disruption, collagen infiltration, internal urethral sphincter damage)” value in series [9] is reported as “prevented these adverse changes”. For the same molecule, the “Plasma level, exogenous” value in series [10] was 5,042 ♂ pg/ml.

B1: insulin-like peptide-3 (protein, listed as Homo sapiens)
chain: MDPRLPAWALVLLGPALVFALGPAPTPEMREKLCGHHFVRALVRVCGGPRWSTEARRPATGGDQRESHSVSQAGLKLLSSSNPPTLTFQSVGISDVSCYSGWRDDICSMGWWPTVISRWDLACSPCPRPLTITATTVQLPPTLHATAASVAVPNKTC
For the molecule B1, the “affinity for RXFP2” value with RXFP2 is given as “highest affinity for RXFP2”.

The record behind these values is patent US20180371046A1, “Therapy for Lower Urinary Tract Dysfunctions” (University of Pittsburgh - Of the Commonwealth System of …, priority 2017, published 2018).
